Like-named read-outs stand apart in the source and are kept apart here.
Experiment: Solubility measurements by gravimetric method in solvents at 23° C. and 50° C.
Type: physicochemical
Conditions: for solubility at 2 days: thermodynamic from solid, read-out: Solubility
Description: Solubility measurements were done by gravimetric method in 20 different solvents at two temperatures (23° C. and 50° C.). About 20-30 mg of Form A, the synthesis of which is described below, was weighed and 0.75 mL solvent was added to form a slurry. The slurry was then stirred for two days at the specified temperature. The vial was centrifuged and the supernatant was collected for solubility measurement through gravimetric method. The saturated supernatant was transferred into pre-weighed 2 mL HPLC vials and weighed again (vial+liquid). The uncapped vial was then left on a 50° C. hot plate to slowly evaporate the solvent overnight. The vials were then left in the oven at 50° C. and under vacuum to remove the residual solvent so that only the dissolved solid remained. The vial was then weighed (vial+solid). From these three weights; vial, vial+liquid and vial+solid; the weight of dissolved solid and the solvent were calculated. Then using solvent density the solubility was calculated as mg solid/mL of solvent.
20-30 mg of Form A was weighed into 2 mL vial and 500 μL MeOH solvent system as outlined in the table was added. If dissolved, more solids were added to form the slurry. The slurries were then stirred for two days. The vials were centrifuged and the supernatant was collected for solubility measurement through gravimetric method by evaporation at 50° C. XRPD analysis was conducted on the solid after filtration of the slurries.
For the sake of comparison, the solubility of Compound 1, i.e., the non-crystalline freebase, was also measured in two solvent systems to see the effect of water.

O=C(c1ccc(NS(=O)(=O)c2cccc3cccnc23)cc1)N1CCN(CC2CC2)CC1 [Form A, 1-(cyclopropylmethyl)-4-(4-(quinoline-8-sulfonamido)benzoyl)piperazin-1-ium hemisulfate sesquihydrate] showed a solubility at 2 days (DCM, 23 °C, organic solvent or mixture, DCM, 23° C.) of 2000 µg/mL, a Solubility (EtOAc, 23° C.) of 0 mg solid/mL solvent and a solubility at 2 days (EtOAc, 50 °C, organic solvent or mixture, EtOAc, 50° C.) of 2000 µg/mL. It also gave a solubility at 2 days (EtOAc:MeOH (1:1) and 5 vol % water, 23 °C, organic solvent or mixture, EtOAc:MeOH (1:1) and 5 vol % water, 23° C.) of 3000 µg/mL, a solubility at 2 days (EtOAc:MeOH (1:1) and 5 vol % water, 50 °C, organic solvent or mixture, EtOAc:MeOH (1:1) and 5 vol % water, 50° C.) of 12000 µg/mL and a solubility at 2 days (EtOAc:MeOH (1:1), 23 °C, organic solvent or mixture, EtOAc:MeOH (1:1), 23° C.) of 21000 µg/mL. It also gave a solubility at 2 days (EtOAc:MeOH (1:1), 50 °C, organic solvent or mixture, EtOAc:MeOH (1:1), 50° C.) of 240000 µg/mL, a solubility at 2 days (EtOAc:MeOH (1:9), 23 °C, organic solvent or mixture, EtOAc:MeOH (1:9), 23° C.) of 359000 µg/mL and a solubility at 2 days (EtOAc:MeOH (1:9), 50 °C, organic solvent or mixture, EtOAc:MeOH (1:9), 50° C.) of 531000 µg/mL. For the same compound, the Solubility (EtOAc:MeOH (9:1), 23° C.) was 0 mg solid/mL solvent, the solubility at 2 days (EtOAc:MeOH (9:1), 50 °C, organic solvent or mixture, EtOAc:MeOH (9:1), 50° C.) was 9000 µg/mL and the Solubility (EtOH, 23° C.) was 0 mg solid/mL solvent. It also gave a solubility at 2 days (EtOH, 50 °C, organic solvent or mixture, EtOH, 50° C.) of 1000 µg/mL, a solubility at 2 days (EtOH:MeOH (1:1), 23 °C, organic solvent or mixture, EtOH:MeOH (1:1), 23° C.) of 2000 µg/mL and a solubility at 2 days (EtOH:MeOH (1:1), 50 °C, organic solvent or mixture, EtOH:MeOH (1:1), 50° C.) of 11000 µg/mL. It also gave a Solubility (IPA, 23° C.) of 0 mg solid/mL solvent, a solubility at 2 days (IPA, 50 °C, organic solvent or mixture, IPA, 50° C.) of 2000 µg/mL and a solubility at 2 days (IPA:DMSO (8:2), 23 °C, organic solvent or mixture, IPA:DMSO (8:2), 23° C.) of 11000 µg/mL. It also gave a solubility at 2 days (IPA:DMSO (8:2), 50 °C, organic solvent or mixture, IPA:DMSO (8:2), 50° C.) of 28000 µg/mL, a solubility at 2 days (IPA:DMSO:water (70:20:10), 23 °C, organic solvent or mixture, IPA:DMSO:water (70:20:10), 23° C.) of 1000 µg/mL and a solubility at 2 days (IPA:DMSO:water (70:20:10), 50 °C, organic solvent or mixture, IPA:DMSO:water (70:20:10), 50° C.) of 8000 µg/mL. The solubility at 2 days (IPA:DMSO:water (70:25:5), 23 °C, organic solvent or mixture, IPA:DMSO:water (70:25:5), 23° C.) was 2000 µg/mL, the solubility at 2 days (IPA:DMSO:water (70:25:5), 50 °C, organic solvent or mixture, IPA:DMSO:water (70:25:5), 50° C.) was 9000 µg/mL and the solubility at 2 days (IPA:DMSO:water (80:18:2), 23 °C, organic solvent or mixture, IPA:DMSO:water (80:18:2), 23° C.) was 1000 µg/mL. The solubility at 2 days (IPA:DMSO:water (80:18:2), 50 °C, organic solvent or mixture, IPA:DMSO:water (80:18:2), 50° C.) was 6000 µg/mL, the Solubility (IPAc, 23° C.) was 0 mg solid/mL solvent and the solubility at 2 days (IPAc, 50 °C, organic solvent or mixture, IPAc, 50° C.) was 1000 µg/mL. It also gave a Solubility (MEK:water (20:1), 23° C.) of 0 mg solid/mL solvent, a solubility at 2 days (MEK:water (20:1), 50 °C, organic solvent or mixture, MEK:water (20:1), 50° C.) of 2000 µg/mL and a solubility at 2 days (MeOAc:MeOH (1:1) and 1 vol % water, 23 °C, organic solvent or mixture, MeOAc:MeOH (1:1) and 1 vol % water, 23° C.) of 118000 µg/mL. It also gave a solubility at 2 days (MeOAc:MeOH (1:1) and 1 vol % water, 50 °C, organic solvent or mixture, MeOAc:MeOH (1:1) and 1 vol % water, 50° C.) of 236000 µg/mL, a solubility at 2 days (MeOAc:MeOH (1:1) and 2.5 vol % water, 23 °C, organic solvent or mixture, MeOAc:MeOH (1:1) and 2.5 vol % water, 23° C.) of 39000 µg/mL and a solubility at 2 days (MeOAc:MeOH (1:1) and 2.5 vol % water, 50 °C, organic solvent or mixture, MeOAc:MeOH (1:1) and 2.5 vol % water, 50° C.) of 143000 µg/mL. The solubility at 2 days (MeOAc:MeOH (1:1) and 5 vol % water, 23 °C, organic solvent or mixture, MeOAc:MeOH (1:1) and 5 vol % water, 23° C.) was 5000 µg/mL, the solubility at 2 days (MeOAc:MeOH (1:1) and 5 vol % water, 50 °C, organic solvent or mixture, MeOAc:MeOH (1:1) and 5 vol % water, 50° C.) was 26000 µg/mL and the solubility at 2 days (MeOAc:MeOH (1:1), 23 °C, organic solvent or mixture, MeOAc:MeOH (1:1), 23° C.) was 208000 µg/mL. The solubility at 2 days (MeOAc:MeOH (1:1), 50 °C, organic solvent or mixture, MeOAc:MeOH (1:1), 50° C.) was 340000 µg/mL, the solubility at 2 days (MeOH, 23 °C, organic solvent or mixture, MeOH, 23° C., 2 days slurry) was 393000 µg/mL and the solubility at 2 days (MeOH, 50 °C, organic solvent or mixture, MeOH, 50° C., 2 days slurry) was greater than 765000 µg/mL. It also gave a solubility at 2 days (MeOH:Water (1:1), 23 °C, aqueous with cosolvent or surfactant or cyclodextrin, MeOH:Water (1:1), 23° C.) of 7000 µg/mL.
